Measurements reported in patent US10052331B2, “3-(3H-imidazo[4,5-C]pyridin-2-yl)-1H-pyrazolo[3,4-C]pyridine and therapeutic uses thereof” (Samumed, LLC, priority 2014, dated 2018).

Legend:
[1] = test system: Wnt activity (Wnt-responsive Sp5 promoter-luciferase reporter in SW480 cells); assay: Wnt activity screening assay: Sp5-Luc reporter gene in SW480 colon carcinoma cells; format: cell-based; conditions: Homo sapiens
Text: The screening assay for Wnt activity is described as follows. Reporter cell lines can be generated by stably transducing cancer cell lines (e.g., colon cancer) or primary cells (e.g., IEC-6 intestinal cells) with a lentiviral construct that includes a Wnt-responsive promoter driving expression of the firefly luciferase gene.
SW480 colon carcinoma cells were transduced with a lentiviral vector expressing luciferase with a human Sp5 promoter consisting of a sequence of eight TCF/LEF binding sites. SW480 cells stably expressing the Sp5-Luc reporter gene and a hygromycin resistance gene were selected by treatment with 150 μg/ml of hygromycin for 7 days. These stably transduced SW480 cells were expanded in cell culture and used for all further screening activities. For Sp5-Luc reporter gene assays, the cells were plated at 10,000 cells/well in 96-well plates with growth medium containing 10% fetal calf serum and incubated overnight at 37° C. and 5% CO2. Each compound was dissolved in DMSO as a 10 mM stock in standard j-vials and used to prepare compound source plates in dose-response format with 3-fold serial dilutions and a 10 mM top concentration. Compound transfer from serially diluted source plates to assay plates containing the cells was accomplished using a pintool (Multimek 96, Beckman equipped with V&P Scientific FP1S50H pins) based liquid handling protocol. This protocol used a slotted pin to transfer 50 nl of compound from a source plate well to an assay plate well containing 50 μl of cells in growth medium. […] Control wells received 50 nl of DMSO treatment for normalization and calculating IC50 values. The treated cells were incubated at 37° C. and 5% CO2 for an additional forty-two hours. Following incubation, the growth medium was removed and 50 μl of BrightGlo luminescence reagent (Promega) was added to each well of the 96-well assay plates. The plates were placed on an orbital shaker for 5 min and then luminescence was quantified on the Victor3 (Perkin Elmer) plate reader. Readings were normalized to DMSO only treated cells, and normalized activities were utilized for IC50 calculations using the dose-response log (inhibitor) vs. response-variable slope (four parameters) nonlinear regression feature available in GraphPad Prism 5.0 or 6.0.

[2] = test system: primary human fibroblasts derived from IPF patients (LL29 cells); assay: Inhibition of fibrotic process: αSMA staining in TGF-β1-treated primary human fibroblasts from IPF patients (LL29 cells); format: cell-based; conditions: Fibroblast, 96 h, LL29 cells treated with TGF-β1 (20 ng/mL), 4 days, 11-point dose-response from 10 μM to 1.87 nM, read-out: Inhibition of fibrosis EC50
Text: The above synthesized compounds were screened using primary human fibroblasts (derived from IPF patients) treated with TGF-β1 to determine their ability to inhibit the fibrotic process.
Primary human fibroblasts derived from IPF patients (LL29 cells) [^1Xiaoqiu Liu, et. al., “Fibrotic Lung Fibroblasts Show Blunted Inhibition by cAMP Due to Deficient cAMP Response Element-Binding Protein Phosphorylation”, Journal of Pharmacology and Experimental Therapeutics (2005), 315(2), 678-687; ^2Watts, K. L., et. al., “RhoA signaling modulates cyclin D1 expression in human lung fibroblasts; implications for idiopathic pulmonary fibrosis”, Respiratory Research (2006), 7(1), 88] were obtained from American Type Culture Collection (ATCC) and expanded in F12 medium supplemented with 15% Fetal Bovine Serum and Penicillin/Streptomycin.
Each compound was dissolved in DMSO as a 10 mM stock and used to prepare compound source plates. Serial dilution (1:2, 11-point dose-response curves from 10 μM to 1.87 nM) and compound transfer was performed using the ECHO 550 (Labcyte, Sunnyvale, Calif.) into 384-well clear bottom assay plates (Greiner Bio-One) with appropriate DMSO backfill for a final DMSO concentration of 0.1%. LL29 cells were plated at 1,500 cells/well in 80 μl/well F12 medium supplemented with 1% Fetal Bovine Serum. One hour after addition of the cells, TGF-β1 (Peprotech; 20 ng/mL) was added to the plates to induce fibrosis (ref. 1 and 2 above). Wells treated with TGF-β1 and containing DMSO were used as controls. Cells were incubated at 37° C. and 5% CO2 for 4 days. Following incubation for 4 days, SYTOX green nucleic acid stain (Life Technologies [Thermo Fisher Scientific]) was added to the wells at a final concentration of 1 uM and incubated at room temperature for 30 min. Cells were then fixed using 4% formaldehyde (Electron Microscopy Sciences), washed 3 times with PBS followed by blocking and permeabilization using 3% Bovine Serum Albumin (BSA; Sigma) and 0.3% Triton X-100 (Sigma) in PBS. Cells were then stained with antibody specific to α-smooth muscle actin (αSMA; Abcam) (ref. 1 and 2 above) in 3% Bovine Serum Albumin (BSA; Sigma) and 0.3% Triton X-100 (Sigma) in PBS, and incubated overnight at 4° C. Cells were then washed 3 times with PBS, followed by incubation with Alexa Flor-647 conjugated secondary antibody (Life Technologies [Thermo Fisher Scientific]) and DAPI at room temperature for 1 hour. Cells were then washed 3 times with PBS and plates were sealed for imaging. αSMA staining was imaged by excitation at 630 nm and emission at 665 nm and quantified using the Compartmental Analysis program on the CellInsight CX5 (Thermo Scientific). Dead or apoptotic cells were excluded from analysis based on positive SYTOX green staining. % of total cells positive for αSMA were counted in each well and normalized to the average of 11 wells treated with TGF-β1 on the same plate using Dotmatics' Studies Software. The normalized averages (fold change over untreated) of 3 replicate wells for each compound concentration were used to create dose-responses curves and EC50 values were calculated using non-linear regression curve fit in the Dotmatics' Studies Software. The EC50 values are reported.

Compound | IC50 [1] | EC50 [2]
Cc1ccncc1-c1cc2c(-c3nc4c(-c5ccncc5)cncc4[nH]3)n[nH]c2cn1 [Compound 109, 5-(4-Methylpyridin-3-yl)-3-(7-(pyridin-4-yl)-3H-imidazo[4,5-c]pyridin-2-yl)-1H-pyrazolo[3,4-c]pyridine] | > 10000 nM | ≥ 9990 nM
CCNCc1cncc(-c2cc3c(-c4nc5c(-c6ccccn6)cncc5[nH]4)n[nH]c3cn2)c1 [Compound 136, N-((5-(3-(7-(Pyridin-2-yl)-3H-imidazo[4,5-c]pyridin-2-yl)-1H-pyrazolo[3,4-c]pyridin-5-yl)pyridin-3-yl)methyl)ethanamine] | 562 nM | 598 nM
O=C(Nc1cncc(-c2cc3c(-c4nc5c(-c6ccccn6)cncc5[nH]4)n[nH]c3cn2)c1)c1ccccc1 [Compound 141, N-(5-(3-(7-(Pyridin-2-yl)-3H-imidazo[4,5-c]pyridin-2-yl)-1H-pyrazolo[3,4-c]pyridin-5-yl)pyridin-3-yl)benzamide] | > 10000 nM | ≥ 9990 nM
c1ccc(-c2cncc3[nH]c(-c4n[nH]c5cnc(-c6cncc(CNCC7CCCC7)c6)cc45)nc23)nc1 [Compound 154, 1-Cyclopentyl-N-((5-(3-(7-(pyridin-2-yl)-3H-imidazo[4,5-c]pyridin-2-yl)-1H-pyrazolo[3,4-c]pyridin-5-yl)pyridin-3-yl)methyl)methanamine] | 945 nM | 649 nM
CN(C)c1cncc(-c2cc3c(-c4nc5c(N6CCCCC6)cncc5[nH]4)n[nH]c3cn2)c1 [Compound 163, N,N-Dimethyl-5-(3-(7-(piperidin-1-yl)-3H-imidazo[4,5-c]pyridin-2-yl)-1H-pyrazolo[3,4-c]pyridin-5-yl)pyridin-3-amine] | 310 nM | 38 nM
CN(C)Cc1cncc(-c2cc3c(-c4nc5c(N6CCCCC6)cncc5[nH]4)n[nH]c3cn2)c1 [Compound 169, N,N-Dimethyl-1-(5-(3-(7-(piperidin-1-yl)-3H-imidazo[4,5-c]pyridin-2-yl)-1H-pyrazolo[3,4-c]pyridin-5-yl)pyridin-3-yl)methanamine] | 122 nM | 74 nM
O=C(Nc1cncc(-c2cc3c(-c4nc5c(N6CCCCC6)cncc5[nH]4)n[nH]c3cn2)c1)C1CC1 [Compound 175, N-(5-(3-(7-(Piperidin-1-yl)-3H-imidazo[4,5-c]pyridin-2-yl)-1H-pyrazolo[3,4-c]pyridin-5-yl)pyridin-3-yl)cyclopropanecarboxamide] | 820 nM | ≤ 9 nM
CC(C)C(=O)Nc1cncc(-c2cc3c(-c4nc5c(N6CCN(C)CC6)cncc5[nH]4)n[nH]c3cn2)c1 [Compound 217, N-(5-(3-(7-(4-Methylpiperazin-1-yl)-3H-imidazo[4,5-c]pyridin-2-yl)-1H-pyrazolo[3,4-c]pyridin-5-yl)pyridin-3-yl)isobutyramide] | 557 nM | ≥ 9990 nM
Cc1ccncc1-c1cc2c(-c3nc4c(-c5ccsc5)cncc4[nH]3)n[nH]c2cn1 [Compound 239, 5-(4-Methylpyridin-3-yl)-3-(7-(thiophen-3-yl)-3H-imidazo[4,5-c]pyridin-2-yl)-1H-pyrazolo[3,4-c]pyridine] | 40 nM | ≤ 9 nM
CCNCc1cncc(-c2cc3c(-c4nc5c(-c6ccoc6)cncc5[nH]4)n[nH]c3cn2)c1 [Compound 266, N-((5-(3-(7-(Furan-3-yl)-3H-imidazo[4,5-c]pyridin-2-yl)-1H-pyrazolo[3,4-c]pyridin-5-yl)pyridin-3-yl)methyl)ethanamine] | > 10000 nM | ≥ 9990 nM
CC(C)Nc1cncc(-c2cc3c(-c4nc5c(-c6ccoc6)cncc5[nH]4)n[nH]c3cn2)c1 [Compound 272, 5-(3-(7-(Furan-3-yl)-3H-imidazo[4,5-c]pyridin-2-yl)-1H-pyrazolo[3,4-c]pyridin-5-yl)-N-isopropylpyridin-3-amine] | 37.6 nM | ≤ 9 nM

The next lines start with results.

IC50 [1] | Compound | EC50 [2]
> 10000 nM | CCCC(=O)Nc1cncc(-c2cc3c(-c4nc5c(-c6ccncc6)cncc5[nH]4)n[nH]c3cn2)c1 [Compound 121, N-(5-(3-(7-(Pyridin-4-yl)-3H-imidazo[4,5-c]pyridin-2-yl)-1H-pyrazolo[3,4-c]pyridin-5-yl)pyridin-3-yl)butyramide] | ≥ 9990 nM
> 10000 nM | CCCCC(=O)Nc1cncc(-c2cc3c(-c4nc5c(-c6ccccn6)cncc5[nH]4)n[nH]c3cn2)c1 [Compound 148, N-(5-(3-(7-(Pyridin-2-yl)-3H-imidazo[4,5-c]pyridin-2-yl)-1H-pyrazolo[3,4-c]pyridin-5-yl)pyridin-3-yl)pentanamide] | ≥ 9990 nM
866 nM | CCC(=O)Nc1cncc(-c2cc3c(-c4nc5c(N6CCCCC6)cncc5[nH]4)n[nH]c3cn2)c1 [Compound 157, N-(5-(3-(7-(Piperidin-1-yl)-3H-imidazo[4,5-c]pyridin-2-yl)-1H-pyrazolo[3,4-c]pyridin-5-yl)pyridin-3-yl)propionamide] | 1560 nM
> 10000 nM | CN1CCN(c2cncc3[nH]c(-c4n[nH]c5cnc(-c6cncc(N)c6)cc45)nc23)CC1 [Compound 211, 5-(3-(7-(4-Methylpiperazin-1-yl)-3H-imidazo[4,5-c]pyridin-2-yl)-1H-pyrazolo[3,4-c]pyridin-5-yl)pyridin-3-amine] | ≤ 9 nM
1380 nM | CN1CCN(c2cncc3[nH]c(-c4n[nH]c5cnc(-c6cncc(CN7CCCCC7)c6)cc45)nc23)CC1 [Compound 223, 3-(7-(4-Methylpiperazin-1-yl)-3H-imidazo[4,5-c]pyridin-2-yl)-5-(5-(piperidin-1-ylmethyl)pyridin-3-yl)-1H-pyrazolo[3,4-c]pyridine] | ≥ 9990 nM
440 nM | CN1CCN(c2cncc3[nH]c(-c4n[nH]c5cnc(-c6cncc(NC(=O)C7CCCC7)c6)cc45)nc23)CC1 [Compound 229, N-(5-(3-(7-(4-Methylpiperazin-1-yl)-3H-imidazo[4,5-c]pyridin-2-yl)-1H-pyrazolo[3,4-c]pyridin-5-yl)pyridin-3-yl)cyclopentanecarboxamide] | ≥ 9990 nM
379 nM | CN1CCN(c2cncc3[nH]c(-c4n[nH]c5cnc(-c6cncnc6)cc45)nc23)CC1 [Compound 234, 3-(7-(4-methylpiperazin-1-yl)-3H-imidazo[4,5-c]pyridin-2-yl)-5-(pyrimidin-5-yl)-1H-pyrazolo[3,4-c]pyridine] | 966 nM
653 nM | c1ccc(CNCc2cncc(-c3cc4c(-c5nc6c(-c7ccsc7)cncc6[nH]5)n[nH]c4cn3)c2)cc1 [Compound 257, N-Benzyl-1-(5-(3-(7-(thiophen-3-yl)-3H-imidazo[4,5-c]pyridin-2-yl)-1H-pyrazolo[3,4-c]pyridin-5-yl)pyridin-3-yl)methanamine] | 2630 nM
